Measurements as given in patent publication US20160158200A1, “Combinations of Hepatitis C Virus Inhibitors” (priority 2013, published 2016).

Tested on: HCV genotype-1a variant with glutamine 30 changed to glutamate in the NS5A protein
Assay type: cell-based
Settings: test compound titrated with BMS-790052 fixed at 200 nM; genotype 1a Q30E replicon
Method in brief: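 Synergy was assessed by combining several fixed amounts of an NS5A-targeting compound with a titration of the second compound of interest.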

| Structure (SMILES) | Fold-Synergistic 1a (Q30E) [fold] |
| --- | --- |
| C#CCCC(=O)N[C@H](c1ncc(-c2ccc(-c3ccc(-c4cnc([C@@H](NC(=O)CCC#C)C(C)C)[nH]4)cc3)cc2)[nH]1)C(C)C [Compound S-44] | >100 |
| CC(C)(C)[C@H](NC(=O)C(C)(C)C1(O)CCCCC1)c1nc(-c2ccc(-c3ccc(-c4c[nH]c([C@@H](NC(=O)C(C)(C)C5(O)CCCCC5)C(C)(C)C)n4)cc3)cc2)c[nH]1 [Compound P-160] | >100 |
| CC(C)(C)[C@H](NC(=O)C1CCCCO1)c1nc(-c2ccc(-c3ccc(-c4c[nH]c([C@@H](NC(=O)C5CCCCO5)C(C)(C)C)n4)cc3)cc2)c[nH]1 (stereo partly drawn) [Compound Y-5] | >100 |
| CC1(C)CCN(C(=O)C2CCC(F)(F)CC2)C1c1nc(-c2ccc(-c3ccc(-c4c[nH]c(C5N(C(=O)C6CCC(F)(F)CC6)CCC5(C)C)n4)cc3)cc2)c[nH]1 (stereo not drawn) [Compound W-217] | >10 |
| CC(C)[C@H](NC(=O)C(C)(C)C)c1ncc(-c2ccc(-c3ccc(-c4cnc([C@@H](NC(=O)C(C)(C)C)C(C)C)o4)cc3)cc2)o1 [Compound N-2] | >100 |
| Cc1ccccc1CC(=O)N[C@H](c1ncc(-c2ccc(-c3ccc(-c4cnc([C@@H](NC(=O)Cc5ccccc5C)C(C)C)[nH]4)cc3)cc2)[nH]1)C(C)C [Compound S-39] | >100 |
| CC(C)[C@H](NC(=O)c1cc(Cl)ccc1F)c1nc(-c2ccc(-c3ccc(-c4c[nH]c([C@@H](NC(=O)c5cc(Cl)ccc5F)C(C)C)n4)c(F)c3)cc2)c[nH]1.O=C(O)C(F)(F)F [Compound N-88] | >100 |
| CC1(C(=O)NC(c2nc(-c3ccc(-c4ccc(-c5c[nH]c(C(NC(=O)C6(C)CCCCCO6)C(C)(C)C)n5)cc4)cc3)c[nH]2)C(C)(C)C)CCCCCO1 (stereo not drawn) [Compound Y-91] | >100 |
| O=C(OCc1ccccc1)N1CCC[C@H]1c1ncc(-c2ccc(-c3ccc(-c4cnc([C@@H]5CCCN5C(=O)OCc5ccccc5)[nH]4)cc3)cc2)[nH]1 [Compound S-216] | >10 |
| CC(C)[C@H](NC(=O)C1CC1)c1ncc(-c2ccc(-c3ccc(-c4cnc([C@@H](NC(=O)C5CC5)C(C)C)[nH]4)cc3)cc2)[nH]1 [Compound S-20] | >100 |
| COc1ncccc1C(=O)N[C@H](c1ncc(-c2ccc(-c3ccc(-c4cnc([C@@H](NC(=O)c5cccnc5OC)C(C)C)[nH]4)cc3)cc2)[nH]1)C(C)C [Compound S-52] | >100 |
| CC(C)(C)C(NC(=O)C1CCCCC1c1ccccc1)c1nc(-c2ccc(-c3ccc(-c4c[nH]c(C(NC(=O)C5CCCCC5c5ccccc5)C(C)(C)C)n4)cc3)cc2)c[nH]1 (mixture of isomers) [Compound S-269] | >100 |
| CCN(CC(F)(F)F)C(=O)C(=O)N[C@H](c1nc(-c2ccc(-c3ccc(-c4c[nH]c([C@@H](NC(=O)C(=O)N(CC)CC(F)(F)F)C(C)(C)C)n4)cc3)cc2)c[nH]1)C(C)(C)C [Compound W-37] | >100 |
| CC(C)(C)[C@H](NC(=O)[C@@]1(C)CCC(F)(F)CO1)c1ncc(-c2ccc(-c3ncc(-c4cnc([C@@H](NC(=O)[C@@]5(C)CCC(F)(F)CO5)C(C)(C)C)[nH]4)cn3)cc2)[nH]1 [Compound Y-84, (R)—N—((S)-1-(5-(2-(4-(2-((S)-1-((R)-5,5-difluoro-2-methyltetrahydro-2H-pyran-2-carboxamido)-2,2-dimethylpropyl)-1H-imidazol-5-yl)phenyl)pyrimidin-5-yl)-1H-imidazol-2-yl)-2,2-dimethylpropyl)-5,5-difluoro-2-methyltetrahydro-2H-pyran-2-carboxamide] | >100 |
| CC(C)(C)C(NC(=O)C1CCCN1CC(F)(F)F)c1nc(-c2ccc(-c3ccc(-c4c[nH]c(C(NC(=O)C5CCCN5CC(F)(F)F)C(C)(C)C)n4)cc3)cc2)c[nH]1 [Compound L-52] | >100 |
| COC(=O)NC(C(=O)NC(c1ncc(-c2ccc(-c3ccc(-c4cnc(C5CCCN5C(=O)C(NC(=O)OC)C(C)C)[nH]4)cc3)cc2)[nH]1)C(C)(C)C)C(C)C (stereo not drawn) [Compound B-194] | <10 |
| CC(C)(C(=O)N[C@H](c1nc(-c2ccc(-c3ccc(-c4cnc([C@@H](NC(=O)C(C)(C)C5CC5)C(C)(C)C)[nH]4)cc3)cc2)c[nH]1)C(C)(C)C)C1CC1 [Compound B-167] | >100 |
| CC(C)(C)[C@H](NC(=O)C(C)(C)C1(O)CCC(F)(F)CC1)c1nc2ccc(C#Cc3ccc4nc([C@@H](NC(=O)C(C)(C)C5(O)CCC(F)(F)CC5)C(C)(C)C)[nH]c4c3)cc2[nH]1.O=C(O)C(F)(F)F [Compound B41A] | >100 |
| CC(C)[C@H](NC(=O)c1ccc2nccnc2c1)c1ncc(-c2ccc(-c3ccc(-c4cnc([C@@H](NC(=O)c5ccc6nccnc6c5)C(C)C)[nH]4)cc3)cc2)[nH]1 [Compound S-19] | >100 |
| CC(C)(C)C(=O)N[C@H](c1nc(-c2ccc(-c3ccc(-c4c[nH]c([C@@H](NC(=O)C(C)(C)C)C(C)(C)C)n4)c(F)c3)cc2)c[nH]1)C(C)(C)C.O=C(O)C(F)(F)F [Compound N-93] | >100 |
| C[C@H]1CCN(C(=O)C(=O)N2C(C)(C)CCCC2(C)C)C1c1nc(-c2ccc(-c3ccc(-c4c[nH]c(C5[C@@H](C)CCN5C(=O)C(=O)N5C(C)(C)CCCC5(C)C)n4)cc3)cc2)c[nH]1 (stereo partly drawn) [Compound W-249] | >100 |
| CC1([C@H](NC(=O)C(=O)N2CCC(F)(F)CC2)c2nc(-c3ccc(-c4ccc(-c5c[nH]c([C@@H](NC(=O)C(=O)N6CCC(F)(F)CC6)C6(C)CC6)n5)cc4)cc3)c[nH]2)CC1.O=C(O)C(F)(F)F [Compound W-39] | >100 |
| CC(C)[C@H](NC(=O)CC12CC3CC(CC(C3)C1)C2)c1ncc(-c2ccc(-c3ccc(-c4cnc([C@@H](NC(=O)CC56CC7CC(CC(C7)C5)C6)C(C)C)[nH]4)cc3)cc2)[nH]1 [Compound P-57] | >100 |
| CC(C)(C)C(NC(=O)C(C)(C)C(O)C1CC1)c1nc(-c2ccc(-c3ccc(-c4c[nH]c(C(NC(=O)C(C)(C)C(O)C5CC5)C(C)(C)C)n4)cc3)cc2)c[nH]1 (mixture of isomers) [Compound N-148] | >100 |
| COC(=O)NC(C(=O)NC(c1nc(-c2ccc(-c3ccc(-c4cn(C)c(C(NC(=O)C(NC(=O)OC)C(C)C)C(C)C)n4)cc3)cc2)cn1C)C(C)C)C(C)C.O=C(O)C(F)(F)F.O=C(O)C(F)(F)F (stereo not drawn) [Compound Y-17] | >10 |
| COc1ccccc1C1OC(=O)CC1C(=O)NC(c1nc(-c2ccc(-c3ccc(-c4c[nH]c(C(NC(=O)C5CC(=O)OC5c5ccccc5OC)C(C)(C)C)n4)cc3)cc2)c[nH]1)C(C)(C)C (mixture of isomers) [Compound S-263] | >10 |
| CC(C)(C)[C@H](NC(=O)C(=O)N1CC(F)(F)C1)c1nc(-c2ccc(-c3ccc(-c4c[nH]c([C@@H](NC(=O)C(=O)N5CC(F)(F)C5)C(C)(C)C)n4)cc3)cc2)c[nH]1 [Compound W-28] | >100 |
